In patent US10696688B2, “Fused pyrimidines as isoform selective phosphoinositide-3-kinase-alpha inhibitors and process for preparation thereof” (Council of Scientific and Industrial Research, priority 2015, dated 2020):
≈ marks a conversion by molar mass, not a printed value. Where “and” joins values, the source holds several entries; their conditions need not be identical. Identical values can stand only once. Like-named read-outs stand apart in the source and are kept apart here. Each block holds one molecule with its values, some of them ahead of it.

Key:
PI3K-alpha = PI3K-alpha (Homo sapiens, UniProt P42336); experiment: PI3K-α assay (ADP-Glo); assay type: biochemical; conditions: for % PI3Kα inhibition at 500 nM / inhibition at 0.5 µM: at 500 nM (0.5 μM), NI = no inhibition at tested concentration; for % PI3Kα inhibition at 500 nM: 0.5 µM; for inhibition at 0.5 µM: read-out: % PI3Kα inhibition at 500 nM
PI3K-alpha, sequence (P42336 whole entry, canonical isoform): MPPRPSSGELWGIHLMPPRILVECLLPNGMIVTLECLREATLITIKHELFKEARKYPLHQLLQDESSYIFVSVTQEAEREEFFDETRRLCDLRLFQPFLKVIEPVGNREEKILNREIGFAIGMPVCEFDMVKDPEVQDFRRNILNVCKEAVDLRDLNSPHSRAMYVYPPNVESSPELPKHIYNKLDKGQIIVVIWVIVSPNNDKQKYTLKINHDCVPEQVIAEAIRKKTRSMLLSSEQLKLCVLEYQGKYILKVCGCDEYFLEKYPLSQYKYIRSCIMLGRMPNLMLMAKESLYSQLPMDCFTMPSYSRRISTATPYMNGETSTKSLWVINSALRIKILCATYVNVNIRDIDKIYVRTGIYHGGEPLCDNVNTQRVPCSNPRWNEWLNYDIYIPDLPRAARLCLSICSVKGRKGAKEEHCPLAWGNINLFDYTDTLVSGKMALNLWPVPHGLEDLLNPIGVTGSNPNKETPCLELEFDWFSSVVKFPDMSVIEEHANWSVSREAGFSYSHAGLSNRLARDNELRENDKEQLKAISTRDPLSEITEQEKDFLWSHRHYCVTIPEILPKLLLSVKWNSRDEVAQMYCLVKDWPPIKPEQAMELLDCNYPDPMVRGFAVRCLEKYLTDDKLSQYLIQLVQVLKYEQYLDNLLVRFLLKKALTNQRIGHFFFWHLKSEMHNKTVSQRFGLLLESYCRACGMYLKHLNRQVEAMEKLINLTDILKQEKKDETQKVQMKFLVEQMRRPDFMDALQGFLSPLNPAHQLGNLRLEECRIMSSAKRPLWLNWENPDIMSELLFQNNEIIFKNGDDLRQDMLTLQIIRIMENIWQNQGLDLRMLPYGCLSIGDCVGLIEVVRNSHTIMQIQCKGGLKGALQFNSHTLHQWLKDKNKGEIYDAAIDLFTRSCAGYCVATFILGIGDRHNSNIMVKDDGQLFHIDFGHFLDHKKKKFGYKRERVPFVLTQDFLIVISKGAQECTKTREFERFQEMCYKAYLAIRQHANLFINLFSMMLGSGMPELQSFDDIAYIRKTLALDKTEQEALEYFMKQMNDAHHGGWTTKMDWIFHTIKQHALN
PI3K-alpha, sequence (P27986 whole entry partner, canonical isoform): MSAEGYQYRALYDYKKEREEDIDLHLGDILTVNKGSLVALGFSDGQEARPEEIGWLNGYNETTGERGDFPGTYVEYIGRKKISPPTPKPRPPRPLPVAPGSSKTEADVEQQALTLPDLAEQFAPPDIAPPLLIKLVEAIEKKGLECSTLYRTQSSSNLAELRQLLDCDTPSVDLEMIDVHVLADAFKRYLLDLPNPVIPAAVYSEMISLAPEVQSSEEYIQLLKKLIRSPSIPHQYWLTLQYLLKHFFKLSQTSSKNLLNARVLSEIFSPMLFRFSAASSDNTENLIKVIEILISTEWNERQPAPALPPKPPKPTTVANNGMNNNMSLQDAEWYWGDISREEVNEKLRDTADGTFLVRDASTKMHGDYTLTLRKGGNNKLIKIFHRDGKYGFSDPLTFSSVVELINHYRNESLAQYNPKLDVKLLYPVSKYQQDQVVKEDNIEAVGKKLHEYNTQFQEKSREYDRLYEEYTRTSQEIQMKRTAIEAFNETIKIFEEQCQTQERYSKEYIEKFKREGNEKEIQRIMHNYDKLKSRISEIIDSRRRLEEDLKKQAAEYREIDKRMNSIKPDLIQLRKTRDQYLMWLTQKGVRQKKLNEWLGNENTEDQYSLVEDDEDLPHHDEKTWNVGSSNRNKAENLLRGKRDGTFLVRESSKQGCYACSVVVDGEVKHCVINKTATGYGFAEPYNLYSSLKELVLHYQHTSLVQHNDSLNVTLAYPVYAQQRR
Description: Compounds proposed in present invention were evaluated for their inhibitory activity on phosphoinositide-3-kinase-α and other isoforms (β, γ and δ). The preliminary screening was performed at 0.5 μM. The protocols used for these bioassays are as follows:
PI3K-alpha (diluted in 12.5 mM Glycine-NaOH (pH 8.5), 50 mM KCl, 2.5 mM MgCl2, 1 mM DTT, 0.05% CHAPS) is assayed in total volume of 20 μl containing 12.5 mM glycine-NaOH (pH 8.5), 50 mM KCl, 2.5 mM MgCl2, 1 mM DTT, 0.05% CHAPS, 0.01 mM ATP and 0.05 mM diC8 PIP2. The enzyme is assayed for 80 min after which 20 μl of ADP-Glo reagent is added. After a further incubation of 40 min, 40 μl of Kinase Detection Buffer is added. The assays are incubated for 40 min and then read on PerkinElmer Envision for 1 sec/well.

A-549 (lung cancer) = experiment: Cytotoxicity, MTT assay; assay type: cell-based; conditions: Homo sapiens, A549, 48 h treatment
Description: (§1) Selected compounds proposed in the present invention were evaluated for their cytotoxic effect against panel of 3 cancer cell line viz. MIAPaCa-2 (pancreatic cancer), A-549 (lung cancer), and MDA-MB-231 (breast cancer) using MTT assay. In each well of a 96-well plate, 3×10^3 cells were grown in 100 μL of medium. After 24 h, each test molecules were added to achieve a final concentration of 10 to 0.01 μmol/L, respectively. After 48 h of treatment, 20 μL of 2.5 mg/mL MTT (Organics Research, Inc.) solution in phosphate buffer saline was added to each well. […], supernatant was removed and formazan crystals were dissolved in 200 μL of DMSO. Absorbance was then measured at 570 nm using an absorbance plate reader (Bio-Rad Microplate Reader). Data are expressed as the percentage of viable cells in treated relative to non-treated conditions. Each experiment was repeated thrice and data was expressed as mean±SD of three independent experiments (Mordant, P. et al., Mol. Cancer Ther. 2010, 9, 358).

[1] = system: MDA-MB-231 (breast cancer); experiment: Cytotoxicity, MTT assay; assay type: cell-based; conditions: Homo sapiens, 48 h treatment
Description: as §1

[2] = system: MIAPaCa-2 (pancreatic cancer); experiment: Cytotoxicity, MTT assay; assay type: cell-based; conditions: Homo sapiens, MIA PaCa-2, 48 h treatment
Description: as §1

[3] = Thermodynamic aqueous solubility, 96-well plate protocol; assay type: physicochemical; conditions: for solubility: 25 °C, pH 7, water, thermodynamic from solid
Description: The thermodyanamic aqueous solubility was determined using 96-plate plate protocol (Bharate, S. S. and Vishwakarma, R. A. 2015, Bioorg. Med. Chem. Lett. 25, 1561-1567). […] Briefly, the compounds were loaded into 96-well plate in the form of methanolic solution, followed by evaporation of solvent to get 1, 2, 4, 8, 16, 25, 40, 80, 160 and 300 μg of compound in solid form in wells. Thereafter, 200 μl of dissolution medium was added to the wells and plates were shaken horizontally at 300 rpm for 4 h at room temperature (25±1° C.). The plates were covered with aluminium foil and were kept overnight at room temperature for equilibration. Later, the plates were centrifuged at 3000 rpm for 15 min (Jouan centrifuge BR4i). Supernatant (50 μl) was withdrawn into UV 96-well plates (Corning® 96 Well Clear Hat Bottom UV-Transparent Microplate) for analyses with microplate reader (Molecular Devices, USA) at corresponding λmax of the sample. The analysis was performed in triplicate for each compound. The solubility curve of concentration (μg/mL) vs absorbance was plotted to find out saturation point and the corresponding concentration was noted.

[4] = via glucuronidation of phenolic hydroxyl group; cited from earlier work
PI3K-gamma = PI3K-gamma (Homo sapiens, UniProt P48736); experiment: PI3K-γ assay (ADP-Glo); assay type: biochemical
PI3K-gamma, sequence (P48736 whole entry): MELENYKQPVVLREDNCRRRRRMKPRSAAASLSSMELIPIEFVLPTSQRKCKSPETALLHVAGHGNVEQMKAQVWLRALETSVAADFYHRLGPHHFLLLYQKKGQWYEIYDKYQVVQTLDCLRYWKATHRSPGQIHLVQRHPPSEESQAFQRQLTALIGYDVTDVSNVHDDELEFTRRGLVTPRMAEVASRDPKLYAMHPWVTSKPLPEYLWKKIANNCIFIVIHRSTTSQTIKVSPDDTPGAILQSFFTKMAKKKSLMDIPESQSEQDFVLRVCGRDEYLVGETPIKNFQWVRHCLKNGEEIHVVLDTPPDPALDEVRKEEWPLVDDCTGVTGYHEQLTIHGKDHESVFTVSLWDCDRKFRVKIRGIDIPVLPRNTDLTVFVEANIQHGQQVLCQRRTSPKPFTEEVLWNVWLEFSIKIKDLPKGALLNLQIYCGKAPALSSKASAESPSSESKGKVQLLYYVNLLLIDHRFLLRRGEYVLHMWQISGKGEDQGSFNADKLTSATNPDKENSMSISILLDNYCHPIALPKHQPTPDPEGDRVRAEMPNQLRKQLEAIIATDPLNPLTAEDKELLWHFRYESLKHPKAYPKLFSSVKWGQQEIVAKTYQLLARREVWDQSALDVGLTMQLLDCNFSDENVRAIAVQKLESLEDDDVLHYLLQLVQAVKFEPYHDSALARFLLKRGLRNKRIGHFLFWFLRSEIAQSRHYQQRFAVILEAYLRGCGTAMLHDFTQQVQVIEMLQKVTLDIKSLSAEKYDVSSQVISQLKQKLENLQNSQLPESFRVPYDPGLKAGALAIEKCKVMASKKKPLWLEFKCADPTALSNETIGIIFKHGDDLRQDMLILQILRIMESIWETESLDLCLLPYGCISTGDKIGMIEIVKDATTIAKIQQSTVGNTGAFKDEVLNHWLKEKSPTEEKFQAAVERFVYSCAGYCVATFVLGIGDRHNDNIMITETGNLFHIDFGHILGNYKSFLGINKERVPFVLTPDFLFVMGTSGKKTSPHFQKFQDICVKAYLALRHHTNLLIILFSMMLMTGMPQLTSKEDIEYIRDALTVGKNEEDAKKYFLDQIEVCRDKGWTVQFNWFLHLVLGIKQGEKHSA

[5] = system: Ehrlich ascites carcinoma (EAC) cells; experiment: In-vivo activity in Ehrlich solid tumor model; set-up: species or system swiss mice; conditions: 22 at 25 mg/kg i.p., 5-fluorouracil at 22 mg/kg i.p., day 1-9; for Day 13 % Tumor Growth Inhibition: day 13, versus saline control
PI3K-beta = PI3K-beta (Homo sapiens, UniProt P42338); experiment: PI3K-β assay (ADP-Glo); assay type: biochemical
PI3K-beta, sequence (P42338 whole entry): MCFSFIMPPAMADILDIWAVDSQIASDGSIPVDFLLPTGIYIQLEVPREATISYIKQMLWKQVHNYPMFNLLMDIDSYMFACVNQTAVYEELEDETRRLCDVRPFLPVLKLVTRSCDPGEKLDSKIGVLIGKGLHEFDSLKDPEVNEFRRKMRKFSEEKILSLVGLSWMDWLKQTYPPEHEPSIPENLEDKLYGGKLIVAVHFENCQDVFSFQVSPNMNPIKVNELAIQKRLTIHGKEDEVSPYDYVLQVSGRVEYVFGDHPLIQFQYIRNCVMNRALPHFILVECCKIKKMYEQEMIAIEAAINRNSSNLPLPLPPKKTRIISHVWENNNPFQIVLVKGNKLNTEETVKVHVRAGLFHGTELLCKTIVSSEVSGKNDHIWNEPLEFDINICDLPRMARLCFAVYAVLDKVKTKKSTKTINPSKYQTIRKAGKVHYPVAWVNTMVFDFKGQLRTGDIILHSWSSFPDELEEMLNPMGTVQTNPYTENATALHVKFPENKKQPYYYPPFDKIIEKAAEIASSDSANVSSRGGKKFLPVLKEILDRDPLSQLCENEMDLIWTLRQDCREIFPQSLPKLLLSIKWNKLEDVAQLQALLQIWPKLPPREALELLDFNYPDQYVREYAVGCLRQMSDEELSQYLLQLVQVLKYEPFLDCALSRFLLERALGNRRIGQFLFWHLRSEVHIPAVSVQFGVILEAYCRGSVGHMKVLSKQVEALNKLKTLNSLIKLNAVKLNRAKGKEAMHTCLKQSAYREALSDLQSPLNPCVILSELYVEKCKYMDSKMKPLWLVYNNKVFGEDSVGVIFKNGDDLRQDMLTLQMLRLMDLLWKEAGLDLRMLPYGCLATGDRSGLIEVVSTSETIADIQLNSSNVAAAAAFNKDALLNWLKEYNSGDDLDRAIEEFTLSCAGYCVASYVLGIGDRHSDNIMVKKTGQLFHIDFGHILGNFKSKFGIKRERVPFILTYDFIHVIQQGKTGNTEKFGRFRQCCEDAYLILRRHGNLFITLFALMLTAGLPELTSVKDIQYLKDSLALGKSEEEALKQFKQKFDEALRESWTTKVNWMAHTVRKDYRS
PI3K-beta, sequence (P27986 whole entry partner): as the sequence (P27986 whole entry partner, canonical isoform) above

PI3K-delta = PI3K-delta (Homo sapiens, UniProt O00329); experiment: PI3K-δ assay (ADP-Glo); assay type: biochemical
PI3K-delta, sequence (O00329 whole entry): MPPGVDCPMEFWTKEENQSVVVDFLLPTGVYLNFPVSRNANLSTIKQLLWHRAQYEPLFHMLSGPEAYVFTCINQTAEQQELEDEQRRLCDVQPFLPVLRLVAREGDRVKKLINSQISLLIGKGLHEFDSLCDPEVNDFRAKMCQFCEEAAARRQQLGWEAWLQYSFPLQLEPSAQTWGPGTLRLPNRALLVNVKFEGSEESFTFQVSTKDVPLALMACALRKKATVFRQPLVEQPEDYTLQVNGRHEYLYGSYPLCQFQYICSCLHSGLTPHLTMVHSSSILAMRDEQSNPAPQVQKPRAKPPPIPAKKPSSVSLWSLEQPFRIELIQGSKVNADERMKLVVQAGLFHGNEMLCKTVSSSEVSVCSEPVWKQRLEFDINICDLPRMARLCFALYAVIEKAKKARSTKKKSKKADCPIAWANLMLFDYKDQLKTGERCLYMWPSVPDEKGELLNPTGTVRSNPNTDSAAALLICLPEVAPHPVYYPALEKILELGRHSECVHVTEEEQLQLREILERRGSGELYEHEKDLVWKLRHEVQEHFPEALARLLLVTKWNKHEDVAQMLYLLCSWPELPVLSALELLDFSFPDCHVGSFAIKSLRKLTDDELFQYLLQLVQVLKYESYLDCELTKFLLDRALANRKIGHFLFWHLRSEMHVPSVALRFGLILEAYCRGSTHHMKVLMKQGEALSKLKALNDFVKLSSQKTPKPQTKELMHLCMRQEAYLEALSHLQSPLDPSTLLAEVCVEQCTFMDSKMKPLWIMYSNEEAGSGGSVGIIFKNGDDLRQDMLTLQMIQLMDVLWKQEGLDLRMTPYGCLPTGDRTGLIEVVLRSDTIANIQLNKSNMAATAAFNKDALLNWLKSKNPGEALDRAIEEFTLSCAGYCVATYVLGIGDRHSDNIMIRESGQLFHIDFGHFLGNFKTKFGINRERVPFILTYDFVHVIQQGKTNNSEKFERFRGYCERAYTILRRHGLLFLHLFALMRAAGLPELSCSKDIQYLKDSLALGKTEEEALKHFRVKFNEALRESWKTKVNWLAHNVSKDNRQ
PI3K-delta, sequence (P27986 whole entry partner): as the sequence (P27986 whole entry partner, canonical isoform) above

[6] = dead/total animals; 22 at 25 mg/kg i.p., 5-fluorouracil at 22 mg/kg i.p., day 1-9
[7] = water (aqueous, pH 7), pH = 7, read-out: Aqueous Solubility (μg/ml) at pH = 7
[8] = water, pH = 7, read-out: Aqueous Solubility (μg/ml) at pH = 7
[9] = water, in H2O at pH = 7, read-out: Solubility μg/ml in H2O at pH = 7

% PI3Kα inhibition at 500 nM (PI3K-alpha): 70% | inhibition at 0.5 µM (PI3K-alpha): > 70%
Compound: O=C(Nc1ccc(C(F)(F)F)cc1)NC1CCN(c2nc(N3CCOCC3)c3sccc3n2)CC1 [Compound 24, 1-(1-(4-morpholinothieno[3,2-d]pyrimidin-2-yl)piperidin-4-yl)-3-(4-(trifluoromethyl)phenyl)urea]
IC50 (A-549 (lung cancer)): 13 µM | IC50 [1]: 8 µM | IC50 [2]: 9 µM

inhibition at 0.5 µM (PI3K-alpha): 54.8% | solubility [3, 7]: 5 µg/mL (≈ 9.81 µM)
Compound: O=S(=O)(NC1CCN(c2nc(N3CCOCC3)c3sccc3n2)CC1)c1ccc2ccccc2c1 [Compound 30, N-(1-(4-morpholinothieno [3,2-d]pyrimidin-2-yl)piperidin-4-yl)naphthalene-2-sulfonamide]

% PI3Kα inhibition at 500 nM (PI3K-alpha): 81% | inhibition at 0.5 µM (PI3K-alpha): > 70% | solubility [3, 7]: 200 µg/mL (≈ 419 µM) | solubility [3, 8]: > 200 µg/mL
Compound: CC(C)(C)OC(=O)NC1CCN(c2nc(N3CCOCC3)c3sc(C(C)(C)O)cc3n2)CC1 [Compound 17, tert-butyl (1-(6-(2-hydroxypropan-2-yl)-4-morpholinothieno[3,2-d]pyrimidin-2-yl)piperidin-4-yl)carbamate]

% PI3Kα inhibition at 500 nM (PI3K-alpha): 76% | inhibition at 0.5 µM (PI3K-alpha): > 70% | solubility [3, 7]: 200 µg/mL (≈ 438 µM) | solubility [3, 8]: > 200 µg/mL
Compound: O=C(Nc1ccccc1F)NC1CCN(c2nc(N3CCOCC3)c3sccc3n2)CC1 [Compound 25, 1-(2-fluorophenyl)-3-(1-(4-morpholinothieno[3,2-d]pyrimidin-2-yl)piperidin-4-yl)urea]

% PI3Kα inhibition at 500 nM (PI3K-alpha): 85% | inhibition at 0.5 µM (PI3K-alpha): > 70% | IC50 (PI3K-alpha; read-out: IC50 for PI3K (μM) PI3K-α): 0.008 µM | solubility [3, 7]: 10 µg/mL (≈ 18.3 µM)
Compound: CCOC(=O)c1ccc(NC(=O)NC2CCN(c3nc(N4CCOCC4)c4oc5ncccc5c4n3)CC2)cc1 [Compound 8, ethyl 4-(3-(1-(4-morpholinopyrido[3′,2′:4,5]furo[3,2-d]pyrimidin-2-yl)piperidin-4-yl)ureido)benzoate]
IC50 (A-549 (lung cancer)): 8 µM | IC50 [1]: 8 µM | IC50 [2]: 8 µM

inhibition at 0.5 µM (PI3K-alpha): 56% | solubility [3, 7]: 20 µg/mL (≈ 38.8 µM)
Compound: CC(C)(C)c1ccc(S(=O)(=O)NC2CCN(c3nc(N4CCOCC4)c4sccc4n3)CC2)cc1 [Compound 28, 4-(tert-butyl)-N-(1-(4-morpholinothieno[3,2-d]pyrimidin-2-yl)piperidin-4-yl)benzenesulfonamide]

solubility [3, 9]: 16 µg/mL (≈ 31.1 µM)
Compound: CS(=O)(=O)N1CCN(Cc2cc3nc(-c4cccc5[nH]ncc45)nc(N4CCOCC4)c3s2)CC1 [GDC-0941, reference compound]

inhibition at 0.5 µM (PI3K-alpha): < 0%
Compound: CC(C)(C)OC(=O)NC1CCN(c2nc(N3CCOCC3)c3sccc3n2)CC1 [Compound 16, tert-butyl (1-(4-morpholino thieno[3,2-d]pyrimidin-2-yl)piperidin-4-yl)carbamate]

inhibition at 0.5 µM (PI3K-alpha): 59% | solubility [3, 7]: 120 µg/mL (≈ 235 µM)
Compound: CCOC(=O)c1ccc(NC(=O)NC2CCN(c3nc(N4CCOCC4)c4sccc4n3)CC2)cc1 [Compound 21, ethyl 4-(3-(1-(4-morpholinothieno[3,2-d]pyrimidin-2-yl)piperidin-4-yl)ureido)benzoate]

solubility [3, 9]: 5 µg/mL (≈ 14.4 µM)
Compound: Oc1cccc(-c2nc(N3CCOCC3)c3oc4ncccc4c3n2)c1 [PI-103, reference compound]
metabolism [4]: rapid metabolism

inhibition at 0.5 µM (PI3K-alpha): 67.3% | solubility [3, 7]: 10 µg/mL (≈ 22 µM)
Compound: CC(C)(C)OC(=O)NC1CCN(c2nc(N3CCOCC3)c3oc4ncccc4c3n2)CC1 [Compound 6, tert-butyl (1-(4-morpholinopyrido [3′,2′:4,5]furo[3,2-d]pyrimidin-2-yl)piperidin-4-yl)carbamate]

inhibition at 0.5 µM (PI3K-alpha): 40%
Compound: CCOC(=O)c1ccc(NC(=O)NC2CCN(c3nc(N4CCOCC4)c4sc(C(C)(C)O)cc4n3)CC2)cc1 [Compound 26, ethyl 4-(3-(1-(6-(2-hydroxypropan-2-yl)-4-morpholinothieno[3,2-d]pyrimidin-2-yl)piperidin-4-yl)ureido)benzoate]

% PI3Kα inhibition at 500 nM (PI3K-alpha): 76.8% | inhibition at 0.5 µM (PI3K-alpha): > 70% | IC50 (PI3K-alpha; read-out: IC50 for PI3Kα): 0.08 µM | Aqueous Solubility (μg/ml) at pH = 7 ([3]; pH = 7): 400 μg/ml | solubility [3, 8]: > 200 µg/mL
Compound: CN1CCN(C(=O)c2ccc(NC(=O)NC3CCN(c4nc(N5CCOCC5)c5oc6ncccc6c5n4)CC3)cc2)CC1 [Compound 10, 1-(4-(4-methylpiperazine-1-carbonyl)phenyl)-3-(1-(4-morpholinopyrido[3′,2′:4,5]furo[3,2-d]pyrimidin-2-yl)piperidin-4-yl)urea]
IC50 (A-549 (lung cancer)): 9 µM | IC50 [1]: 40 µM | IC50 [2]: 8 µM

inhibition at 0.5 µM (PI3K-alpha): 68% | solubility [3, 7]: 20 µg/mL (≈ 44.2 µM)
Compound: Cc1ccccc1NC(=O)NC1CCN(c2nc(N3CCOCC3)c3sccc3n2)CC1 [Compound 23, 1-(1-(4-morpholinothieno[3,2-d]pyrimidin-2-yl)piperidin-4-yl)-3-(o-tolyl)urea]

Compound: CCc1ccc(NC(=O)NC2CCN(c3nc(N4CCOCC4)c4sccc4n3)CC2)cc1 [Compound 22, 1-(4-ethylphenyl)-3-(1-(4-morpholinothieno[3,2-d]pyrimidin-2-yl)piperidin-4-yl)urea]
inhibition at 0.5 µM (PI3K-alpha): 74% | IC50 (PI3K-alpha; read-out: IC50 for PI3Kα): 0.04 µM | IC50 (PI3K-gamma): > 20 µM | Fold-selectivity for PI3K-α with respect to other isoforms PI3K-γ (PI3K-gamma; PI3K-α versus PI3K-γ): >500 fold | % inhibition of PI3K-γ (PI3K-gamma; up to 20 μM): 0% | Day 13 % Tumor Growth Inhibition [5]: 32.7% and 32.73% | Day 13 Avg. tumor weights [5]: 1128.4 mg | IC50 (PI3K-beta): > 20 µM | Fold-selectivity for PI3K-α with respect to other isoforms PI3K-β (PI3K-beta; PI3K-α versus PI3K-β): >500 fold | % inhibition of PI3K-β (PI3K-beta; up to 20 μM): 0% | IC50 (A-549 (lung cancer)): 7 µM | IC50 [1]: 4 µM | IC50 [2]: 5 µM | Fold-selectivity for PI3K-α with respect to other isoforms PI3K-δ (PI3K-delta): >500 fold | IC50 (PI3K-delta): > 20 µM | % inhibition of PI3K-δ (PI3K-delta; up to 20 μM): 0% | solubility [3, 9]: 800 µg/mL (≈ 1710 µM)

Compound: O=c1[nH]cc(F)c(=O)[nH]1 [5-Fluorouracil, reference compound]
Mortality [6]: 0/7 | Day 13 % Tumor Growth Inhibition [5]: 50.04% | Day 13 Avg. tumor weights [5]: 929.42 mg

inhibition at 0.5 µM (PI3K-alpha): 33%
Compound: COc1ccc(S(=O)(=O)NC2CCN(c3nc(N4CCOCC4)c4sccc4n3)CC2)cc1 [Compound 27, 4-methoxy-N-(1-(4-morpholinothieno[3,2-d]pyrimidin-2-yl)piperidin-4-yl)benzenesulfonamide]
